Reference: patent publication US12180137B1, “Solid forms of enantiopure deuterium-enriched bupropion and methods of use thereof” (DeuteRx, LLC, priority 2024, dated 2024)
Counter-ions that a name gives are not always drawn.

Assay: Particle size distribution by laser diffraction (Malvern Mastersizer 3000, wet dispersion)
Format: physicochemical
Settings: wet dispersion in Isopar G, average of three consecutive measurements
Experimental: Particle size distribution was analyzed using laser diffraction. The apparatus used was a Malvern Mastersizer 3000 equipped with a Hydro 3000S cell for wet dispersion measurements. The measuring range was 0.01-3500 μm, the dispersant used was Isopar G (dispersant RI 1.42). The scattering model used was Mie (material RI 1.50, AI 0.10). The cell was cleaned, filled with dispersant, aligned and the background measured (30 sec. for red light, 10 seconds for blue light). The pump speed was set at 2800 rpm. About 100 mg of the sample were dispersed in 0.5 ml of 2% w/w soy lecithin solution in isopar G, stirred gently with a glass rod and brought to 10 ml with isopar G. The suspension was sonicated for about a minute, then added dropwise to the measurement cell until an obscuration of 10-20% was obtained. The sample was then measured for 20 seconds with red light and 10 seconds with blue light. The results given, expressed in Dv(10), Dv(50) and Dv(90) are the average of three consecutive measurements (Table 3).

CC(NC(C)(C)C)C(=O)c1cccc(Cl)c1 (racemic) [Bupropion HCl]
Particle size distribution Dv(10): 4.9 μm
Particle size distribution Dv(50): 64 μm
Particle size distribution Dv(90): 208 μm

[2H]N(C(C)(C)C)[C@@]([2H])(C)C(=O)c1cccc(Cl)c1 [Compound 101]
Particle size distribution Dv(10): 7.1 μm
Particle size distribution Dv(50): 31 μm
Particle size distribution Dv(90): 179 μm
